Measurements: paper PMC8838521, “Antimicrobial, Cytotoxic and Mutagenic Activity of Gemini QAS Derivatives of 1,4:3,6-Dianhydro-L-iditol” (Molecules, 2022)
Values joined by “and” are separate entries in the source; they are usually repeats but may differ in a detail not shown here. Equal values may be shown once. “Also recorded” adds a separate entry of the source.

How the values were obtained:
[1] = Solubility observed during assays; assay type: physicochemical; conditions: for Solubility in water and DMSO: for Ames test; for Solubility in water: observed during antimicrobial assays, DMSO used for solubilisation
[2] = system: Candida albicans ATCC 10231; test: Antimicrobial activity, microdilution MIC, C. albicans; assay type: cell-based; conditions: Candida albicans, ATCC10231, 24 h, MIC90, 24 h, RPMI; read-out: MIC C. albicans ATCC 10231
Procedure: (§1) The antimicrobial potential of the tested agents was evaluated against two reference strains of bacteria: Staphylococcus aureus ATCC 25923 and Escherichia coli K12, two reference strains of pathogenic yeasts, Candida albicans ATCC10231 and Candida glabrata DSMZ11226, as well as 20 strains of clinical isolates of S. aureus collected from patients with skin and soft tissue infections (n = 8) and strains derived from subclinical bovine mastitis milk samples (n = 12). Four of these strains, two isolated from human infections and two isolated from bovine mastitis, were classified as MRSA (Methicillin-resistant Staphylococcus aureus). All of them were mecA positive and their methicillin resistance was confirmed with the disc diffusion assay. The remaining 16 strains were MSSA (Methicillin-sensitive Staphylococcus aureus). The assays were performed using a serial, two-fold dilution method in 96-well microtiter plates under conditions recommended by the Clinical and Laboratory Standards Institute (CLSI, Pittsburgh, PA, USA). The aim of this procedure was the determination of the MIC parameter (Minimum Inhibitory Concentration)—the minimum concentration of a tested agent capable to inhibit the growth of a specified strain of microorganism. The agents were solubilized in deionized, sterile water to a final concentration of […]. Subsequently, solutions were mixed (1:1 (v/v)) with 2 × concentrated liquid medium, Mueller-Hinton Broth 2—cation adjusted (MHB2) for evaluation of antibacterial activity and RPMI in the case of evaluation of the antifungal activity. […] Subsequently, the solutions were mixed with MHB2 or RPMI medium to get the final concentration of 8.192 mg/mL (8192 µg/mL). In the next step, the serial, two-fold dilutions of the tested agents (over the range of concentrations from 8192 to 8 µg/mL for reference strains of bacteria and yeasts and from 512 to 1.0 µg/mL for clinical isolates of S. aureus) were prepared in 96-well microtitration plates in the final volume of 100 μL of the appropriate medium.
(§2) The pure cultures of yeast strains were grown on the Sabouraud Dextrose Agar (SDA) for 18–24 h at 37 °C. Suspensions of the microorganisms were prepared by taking one loop of pure culture into sterile water and adjusting optical density to 0.1 at 660 nm and further 50-fold dilution in RPMI 1640 medium resulting in cells concentration of approximate 2 × 10^4 CFU/mL. One hundred μL of that suspension was inoculated to the wells of the microtitration plate containing appropriate dilutions of the agents. The positive growth control of each strain (both bacteria and yeasts) was performed in the wells without the tested substances. The negative control containing only the media was included in each assay. Microtiter plates were incubated at 37 °C for 24 h. Following the incubation period, determination of the MIC values of the tested agents was carried out by measuring the absorbance at 531 nm using a Victor^3 microplate reader (Perkin Elmer, Inc., Waltham, MA, USA). The lowest concentration of the agent causing inhibition of growth equal to or higher than 90% (MIC90) of growth control was taken as the MIC value. Each test was repeated three times.

[3] = system: Staphylococcus aureus ATCC 25923; test: Antimicrobial activity, microdilution MIC, S. aureus reference strain; assay type: cell-based; conditions: Staphylococcus aureus, ATCC25923, 24 h, MIC90, 24 h, MHB2; read-out: MIC S. aureus ATCC 25923
Procedure: as §1
(§3) The pure bacterial cultures of (both the reference and clinical strains) were grown on the Mueller-Hinton Agar (MHA) for 18–24 h at 37 °C. A small amount of the biomass of the culture of each strain of microorganisms was suspended in the sterile PBS (phosphate buffered saline, pH 7.4 at 25 °C, purchased from Sigma) solution to get an optical density OD600 = 0.13 (equal to the cells concentration approximately 1 × 10^8 CFU/mL). The obtained suspensions of the cells were next diluted 1:100 (v/v) in the MHB2 medium. One hundred µL of the cells’ suspension was finally loaded into the wells of plates prepared in advance, which contained 100 µL of two-fold dilutions of the tested agents (the final concentration of the bacterial cells in all wells was approximately 5 × 10^5 CFU/mL).
as §2, with “times. […]” for “times.”

Escherichia coli K12 = test: Antimicrobial activity, microdilution MIC, E. coli; assay type: cell-based; conditions: Escherichia coli, K12, 24 h, MIC90, 24 h, MHB2; read-out: MIC E. coli K12
Procedure: as §1, §3
as §2, with “times. […]” for “times.”

[4] = system: Candida glabrata DSMZ 11226; test: Antimicrobial activity, microdilution MIC, C. glabrata; assay type: cell-based; conditions: Nakaseomyces glabratus, DSMZ11226, 24 h, MIC90, 24 h, RPMI; read-out: MIC C. glabrata DSMZ 11226
Procedure: as §1, §2

MIC [2] | MIC [3] | MIC (Escherichia coli K12) | MIC [4] | Compound | Solubility in water and DMSO [1] | Solubility in water [1]
1020 µg/mL and 1410 µM | 128 µg/mL and 176 µM | 2050 µg/mL and 2820 µM | 1020 µg/mL and 1410 µM | CCCCCCCC[N+](C)(C)C1COC2C1OCC2[N+](C)(C)CCCCCCCC (stereo not drawn) [QAS 9] | insufficient solubility in both water and DMSO | suppressed water solubility; also recorded: lower solubility in water
32 µg/mL and 40 µM | 8 µg/mL and 10 µM | 32 µg/mL and 40 µM | 16 µg/mL and 20 µM | CCCCCCCCCC[N+](C)(C)C1COC2C1OCC2[N+](C)(C)CCCCCCCCCC [QAS 10, N,N’-(1,4:3,6-Dianhydro-2,5-dideoxy-L-iditol-2,5-diyl)-bis(N,N-dimethyl-N-decylammonium) Ditrifluoromethanesulfonate] | insufficient solubility in both water and DMSO | suppressed water solubility; also recorded: lower solubility in water
